Assay results from patent US20240026461A1, “BCL10 MUTATIONS AS BIOMARKERS FOR TARGETED THERAPY IN B CELL LYMPHOMAS” (priority 2022, published 2024).

Tests used:
[1] = test system: HBL1^WT; experiment: Growth inhibition assay (CellTiter Glo), HBL1 cells expressing BCL10 WT; assay type: cell-based; settings: Homo sapiens, 96 h, read-out: IC50, growth inhibition, BTK inhibitors
Procedure: (§1) DLBCL cell lines were cultured in exponential condition and the cell growth was determined by CellTiter Glo (Promega). 3000-5000 cells were seeded and cultured in each well of 384 well plate for 96 h and treated with compounds every 48 h. Luminescence was read at the endpoint with the Synergy NEO microplate reader (BioTek). The value of compound treated cells was normalized to their vehicle treated controls and then used to calculate IC50 in GraphPad Prism (RRID:SCR_002798).
(§2) Given the distinct functional profiles, CARD11 dependencies, and MALT1 activation effects of the BCL10 CARD and truncation mutants, the inventors designed experiments to evaluate whether, and to what extent, these mutant BCL10 proteins might confer BTK inhibitor resistance. Isogenic ABC-DLBCL cells expressing BCL10WT, BCL10^R58Q and BCL10^E140X proteins were treated with escalating doses of three chemically distinct covalent BTK inhibitors: ibrutinib, acalabrutinib, or zanubrutinib. The cellular proliferation rates of the treated cells were measured using an ATP fluorescence assay after 96 hours of drug exposure.
(§3) Isogenic BCL10^WT, BCL10^R58Q and BCL10^E140X ABC-DLBCLs were exposed to increasing concentrations of each of these compounds for 96 hours.

[2] = test system: HBL1^R58Q; experiment: Growth inhibition assay (CellTiter Glo), HBL1 cells expressing BCL10 R58Q; assay type: cell-based; settings: Homo sapiens, 96 h, read-out: IC50, growth inhibition, BTK inhibitors
Procedure: as §1, §2, §3

[3] = test system: HBL1^E140X; experiment: Growth inhibition assay (CellTiter Glo), HBL1 cells expressing BCL10 E140X; assay type: cell-based; settings: Homo sapiens, 96 h, read-out: IC50, growth inhibition, BTK inhibitors
Procedure: as §1, §2, §3

[4] = test system: OCI-LY10^WT; experiment: Growth inhibition assay (CellTiter Glo), OCI-Ly10 cells expressing BCL10 WT; assay type: cell-based; settings: Homo sapiens, 96 h, read-out: IC50, growth inhibition, BTK inhibitors
Procedure: as §1, §2, §3

[5] = test system: OCI-LY10^R58Q; experiment: Growth inhibition assay (CellTiter Glo), OCI-Ly10 cells expressing BCL10 R58Q; assay type: cell-based; settings: Homo sapiens, 96 h, read-out: IC50, growth inhibition, BTK inhibitors
Procedure: as §1, §2, §3

[6] = test system: OCI-LY10^E140X; experiment: Growth inhibition assay (CellTiter Glo), OCI-Ly10 cells expressing BCL10 E140X; assay type: cell-based; settings: Homo sapiens, 96 h, read-out: IC50, growth inhibition, BTK inhibitors
Procedure: as §1, §2, §3

[7] = test system: BCL10^WT expressing ABC-DLBCL xenografts; experiment: Xenograft, ibrutinib treatment, BCL10^WT tumors; assay type: in vivo, mice; settings: ibrutinib 37mpk, oral gavage, Q.D.
From the text: (§4) FIG. 6A-6K illustrate that BCL10 gain-of-function mutant lymphomas are resistant to upstream Bruton's tyrosine kinase (BTK) inhibitors. FIG. 6A illustrates growth inhibition assays of human diffuse large B-cell lymphoma (HBL1) cells and OCI-Ly10 lymphoma cells expressing wild type or mutant BCL10 protein in response to the BTK inhibitor Acalabrutinib. X axis, concentration of compound (M); Y axis, inhibition of cell growth normalized to vehicle treated cells. *p<0.05; **p<0.01; ****p<0.0001; ns, not significant. FIG. 6B illustrates growth inhibition assays of human diffuse large B-cell lymphoma (HBL1) cells and OCI-Ly10 lymphoma cells expressing wild type or mutant BCL10 protein in response to the BTK inhibitor Zanubrutinib. […] FIG. 6D illustrates luciferase activity measured in the MALT1 GloSensor reporter cell lines upon BTK inhibitor Acalabrutinib treatment. […] FIG. 6E illustrates luciferase activity measured in the MALT1 GloSensor reporter cell lines upon BTK inhibitor Zanubrutinib treatment. […] FIG. 6F illustrates luciferase activity measured in the MALT1 GloSensor reporter cell lines upon BTK inhibitor Ibrutinib treatment. […] AUC was calculated with Prism. FIG. 6J graphically illustrates tumor weight measured at the endpoint of tumors formed from xenografts of HBL1 cells expressing WT and mutant BCL10 (n=5-6/group). […]

[8] = test system: BCL10^R58Q expressing ABC-DLBCL xenografts; experiment: Xenograft, ibrutinib treatment, BCL10^R58Q tumors; assay type: in vivo, mice; settings: ibrutinib 37mpk, oral gavage, Q.D.
From the text: as §4

[9] = test system: BCL10^E140X expressing ABC-DLBCL xenografts; experiment: Xenograft, ibrutinib treatment, BCL10^E140X tumors; assay type: in vivo, mice; settings: ibrutinib 37mpk, oral gavage, Q.D.
From the text: as §4

[10] = molecular target: T1, MALT1 (Ig1-Ig2) (human, UniProt Q9UDY8 125-309); experiment: His pull-down after co-expression in E. coli, Coomassie-stained SDS-PAGE
T1 construct: domain: Ig1-Ig2; also called Ig1-Ig2 construct of MALT1; MALT1 (207-309)
T1 sequence (looked up): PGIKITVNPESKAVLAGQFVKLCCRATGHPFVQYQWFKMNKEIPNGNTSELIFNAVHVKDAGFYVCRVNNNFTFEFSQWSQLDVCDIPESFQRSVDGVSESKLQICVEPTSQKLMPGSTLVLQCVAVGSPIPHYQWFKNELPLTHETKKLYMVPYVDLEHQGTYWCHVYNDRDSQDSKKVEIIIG
Procedure: The inventors designed experiments to determine whether there were additional MALT1-binding sites on BCL10 at its largely unstructured C-terminus. The C-terminal region was divided into two halves and MALT1 pull-down studies were performed. […] Of note, unlike the interaction between BCL10 CARD and MALT1 death domain (DD) in the filamentous form, the interaction between BCL10 C-terminal region and MALT1 Ig1-Ig2 is monomeric as assessed by gel filtration chromatography of the complex.

[11] = molecular target: T2, MALT1 (of the lymphoma cell lysates, detected with anti-MALT1) (UniProt Q9UDY8 2-824, limits assumed); experiment: anti-Flag co-immunoprecipitation from Raji cells, anti-MALT1 blot
T2 construct: Cellular MALT1 co-precipitated or co-fractionated with Flag-BCL10; HBL1 is called a human lymphoma line
T2 sequence (looked up): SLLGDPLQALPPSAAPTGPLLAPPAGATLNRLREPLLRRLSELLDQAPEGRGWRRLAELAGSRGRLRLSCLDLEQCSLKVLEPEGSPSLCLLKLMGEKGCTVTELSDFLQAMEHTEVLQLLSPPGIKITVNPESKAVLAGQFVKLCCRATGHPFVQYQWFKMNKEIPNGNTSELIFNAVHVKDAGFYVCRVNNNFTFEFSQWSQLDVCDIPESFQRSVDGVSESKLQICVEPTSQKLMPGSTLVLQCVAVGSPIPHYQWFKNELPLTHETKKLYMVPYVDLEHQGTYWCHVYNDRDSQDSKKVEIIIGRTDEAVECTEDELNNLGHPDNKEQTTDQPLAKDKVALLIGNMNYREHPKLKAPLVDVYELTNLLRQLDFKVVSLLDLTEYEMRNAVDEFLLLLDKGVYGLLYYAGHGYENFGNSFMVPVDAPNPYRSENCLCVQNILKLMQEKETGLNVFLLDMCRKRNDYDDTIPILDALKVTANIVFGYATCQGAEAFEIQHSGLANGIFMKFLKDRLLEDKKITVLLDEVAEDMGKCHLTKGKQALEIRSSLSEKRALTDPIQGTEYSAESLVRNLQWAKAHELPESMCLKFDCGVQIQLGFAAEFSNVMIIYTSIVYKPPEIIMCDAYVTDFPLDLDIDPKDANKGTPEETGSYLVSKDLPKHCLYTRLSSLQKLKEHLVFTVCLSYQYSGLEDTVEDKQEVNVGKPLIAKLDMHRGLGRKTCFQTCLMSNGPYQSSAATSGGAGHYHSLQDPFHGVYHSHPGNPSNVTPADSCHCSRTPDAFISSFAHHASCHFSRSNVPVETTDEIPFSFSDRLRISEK
Procedure: Lymphoma cells (10⁸) were collected, washed with cold PBS and resuspended with lysis buffer (1% NP40, 10% glycerol, 150 mM NaCl, 20 mM Tris-HCL pH 7.5, and freshly added protease inhibitors). The lysates were centrifuged at 15,000 g, 4° C. for 15 min and the supernatant was then collected and incubated with 50 μL equilibrated anti-Flag magnetic beads (Sigma-Aldrich Cat #M8823, RRID:AB_2637089) at 4° C. for 3 h. The beads were washed 3 times with lysis buffer and followed by 3 times washing with the lysis buffer without NP40. SDS loading buffer without […] reagent was added and boiled at 95° C. for 5 min. The elution was added for […] (final 10%), and ready to run western blot after boiling at 95° C. for 5 min.
To investigate how the truncation mutants might affect CBM complex formation, Flag-tagged wild type and mutant forms of BCL10 were expressed in Raji cells, which lack constitutive B-cell receptor (BCR) signaling. Anti-Flag co-immunoprecipitations were performed on cell lysates. […] In contrast, there was less binding of MALT1 to BCL10^E140X, as well as to the similar BCL10^{K146Nfs*2} truncation mutant (FIG. 4A).

Molecule: C=CC(=O)N1CCC[C@@H](n2nc(-c3ccc(Oc4ccccc4)cc3)c3c(N)ncnc32)C1 [Ibrutinib]
- IC50 [1]: 4 nM
- IC50 [2]: 6.1 nM
- IC50 [3]: 11 nM
- IC50 [4]: 0.66 nM
- IC50 [5]: 2.2 nM
- IC50 [6]: 3.3 nM
- tumor growth of xenografts [7]: suppressed growth
- tumor growth of xenografts ([7]; listed as ibrutinib): expected growth suppression
- tumor growth of xenografts [8]: no significant anti-tumor effect
- tumor growth of xenografts [9]: no significant anti-tumor effect

B1: His-tagged BCL10 (116-164) (other)
chain: GLKCSSCEPFPDGATNNLSRSNSDESNFSEKLRASTVMYHPEGESSTTP
notes: Co-expressed with MALT1 Ig1-Ig2 in E. coli; not shown: His tag
- binding result [10]: no binding

B2: Flag-BCL10^E140X (other)
chain: MEPTAPSLTEEDLTEVKKDALENLRVYLCEKIIAERHFDHLRAKKILSREDTEEISCRTSSRKRAGKLLDYLQENPKGLDTLVESIRREKTQNFLIQKITDEVLKLRNIKLEHLKGLKCSSCEPFPDGATNNLSRSNSD
notes: Range 1-139 follows from the name E140X (stop codon at position 140); Expressed in Raji and HBL1 cells; also called Flag tagged E140X; truncating mutant at position 140; not shown: Flag tag
- binding result [11]: binds
